Assay results from patent publication US20180125921A1, “USE OF QBP1 PEPTIDE FOR THE INHIBITION OF MEMORY CONSOLIDATION” (CONSEJO SUPERIOR DE INVESTIGACIONES CIENTÍFICAS, priority 2015, published 2018).
Residues, ends and D or L forms follow the SMILES beside them.

Legend:
Drosophila melanogaster = conditions: for short-term memory (courtship suppression immediately after training) / long-term memory (courtship suppression after 24 hours): Elav-Gal4 driven expression; for short-term memory (courtship suppression immediately after training): 5 min after training; for long-term memory (courtship suppression after 24 hours): 24 h after training; for effect on fly development / normal courtship behaviour: expression in the nervous system; for normal courtship behaviour: untrained flies
Orb2A PLD [1] = test: CR binding assay of Orb2A PLD amyloid; conditions: protein 10 μM, peptide 50 μM, aged 7 days at 37° C.
Protocol: (§1) Buffers, time and storage conditions, and protein/peptide concentrations used in the aforementioned techniques were as follows: • AFM-SMFS: Experiments were performed using 2-3 μM polyproteins in 10 mM Tris-HCl pH 7.5 at room temperature with proteins incubated at 4° C. between sessions and NTA-Ni2+ functionalized coverslips. For experiments in the presence of the peptides QBP1 and SCR, 20 μM of the peptide were used dissolved in DMSO, and the samples were incubated overnight with the peptide at 4° C. before the measurement. • CD: For far-UV CD spectra it was used a protein concentration of 2-5 μM in 5 mM NaH2PO4, with 0.02% NaN3, pH 6.0. […] The secondary structure content of each protein and its evolution during incubation were estimated by spectra deconvolution using the CDNN analysis program (Bohm, G., et al., Quantitative analysis of protein far UV circular dichroism spectra by neural networks, Protein Eng (1992) 5 (3): 191-5). For thermal stability measurements, the ellipticity changes induced by increasing the temperature (at a constant heating rate of 60° C./h) were measured at 222 nm in 5 mM NaH2PO4 pH 6.0 using a protein concentration of 20 μM. • Turbidimetry: Protein samples used were at 10 μM in PBS+0.02% NaN3, pH 7.0 for all the kinetic experiments. […]

Orb2A PLD [2] = test: Turbidimetry of Orb2A PLD amyloidogenesis; conditions: protein 10 μM, peptide 50 μM, 37° C., turbidity at 405 nm
Protocol: as §1

Orb2A PLD [3] = test: Far-UV CD spectroscopy of Orb2A PLD over time; conditions: peptide five fold molar excess, 37° C.
Protocol: as §1

Orb2A PLD [4] = test: TEM imaging of Orb2A PLD oligomers and fibers; conditions: protein 10 μM, peptide 50 μM, 7 days at 37° C.
Protocol: as §1

Orb2A PLD [5] = test: AFM-SMFS conformational polymorphism of Orb2A PLD; conditions: 20 μM peptide
Protocol: Buffers, time and storage conditions, and protein/peptide concentrations used in the aforementioned techniques were as follows: • AFM-SMFS: Experiments were performed using 2-3 μM polyproteins in 10 mM Tris-HCl pH 7.5 at room temperature with proteins incubated at 4° C. between sessions and NTA-Ni2+ functionalized coverslips. For experiments in the presence of the peptides QBP1 and SCR, 20 μM of the peptide were used dissolved in DMSO, and the samples were incubated overnight with the peptide at 4° C. before the measurement. • CD: For far-UV CD spectra it was used a protein concentration of 2-5 μM in 5 mM NaH2PO4, with 0.02% NaN3, pH 6.0. The QBP1 or SCR (when used) was five fold molar excess relative to proteins (final concentrations 10 to 25 μM with the final concentration (v/v) of DMSO below 0.01%). After recording the first protein spectrum (hour 0), the protein was incubated at 37° C. without stirring and additional spectra were collected at the indicated times. The secondary structure content of each protein and its evolution during incubation were estimated by spectra deconvolution using the CDNN analysis program (Bohm, G., et al., Quantitative analysis of protein far UV circular dichroism spectra by neural networks, Protein Eng (1992) 5 (3): 191-5). For thermal stability measurements, the ellipticity changes induced by increasing the temperature (at a constant heating rate of 60° C./h) were measured at 222 nm in 5 mM NaH2PO4 pH 6.0 using a protein concentration of 20 μM. • Turbidimetry: Protein samples used were at 10 μM in PBS+0.02% NaN3, pH 7.0 for all the kinetic experiments. Samples were incubated at 37° C. without stirring. SCR and QBP1 peptides were used at 50 μM. • CR binding assay: Samples were aged for 7 days at 37° C. with 0.02% NaN3 and no stirring prior to performing the measurements. The protein samples (10 μM) were dialyzed in PBS pH 7.0 for the experiments. SCR and QBP1 peptides were used at 50 μM. • TEM imaging: Protein samples (10 μM) were dialyzed in PBS pH 7.0 for all the TEM measurements. Images were taken after 7 days of incubation at 37° C. in the presence of 0.02% NaN3 without stirring.

full-length Orb2A = full-length Orb2A (Drosophila melanogaster, UniProt Q9VSR3); test: Isothermal titration calorimetry (ITC) of peptide interaction with Orb2A; conditions: 25° C., PBS pH 7.4, Orb2A injected into excess peptide; no quantitative analysis
Chain of full-length Orb2A (Q9VSR3 1-551 isoform Q9VSR3-2): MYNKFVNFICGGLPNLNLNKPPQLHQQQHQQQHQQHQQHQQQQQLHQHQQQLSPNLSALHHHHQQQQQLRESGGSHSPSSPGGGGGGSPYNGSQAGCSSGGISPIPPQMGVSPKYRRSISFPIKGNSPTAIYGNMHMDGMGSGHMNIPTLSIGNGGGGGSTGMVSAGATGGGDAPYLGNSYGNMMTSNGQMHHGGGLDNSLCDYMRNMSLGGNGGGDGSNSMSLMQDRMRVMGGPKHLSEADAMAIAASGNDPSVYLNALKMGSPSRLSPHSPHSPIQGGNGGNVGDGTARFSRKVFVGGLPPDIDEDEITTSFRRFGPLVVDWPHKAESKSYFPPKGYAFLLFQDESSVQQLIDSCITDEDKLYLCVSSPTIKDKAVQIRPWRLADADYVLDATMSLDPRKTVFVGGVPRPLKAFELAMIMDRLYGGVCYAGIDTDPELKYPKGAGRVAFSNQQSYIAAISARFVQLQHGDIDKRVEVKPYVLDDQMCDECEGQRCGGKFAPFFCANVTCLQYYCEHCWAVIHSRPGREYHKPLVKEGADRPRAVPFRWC
Protocol: Proteins were equilibrated in PBS, pH 7.4, by gel-filtration chromatography and the equilibration buffer was used to prepare the peptide solutions. Protein/peptide binding was tested by successive injections of protein sample (10 to 25 μl each) into the reaction cell loaded with peptide at high final [peptide]/[protein] molar ratios. The apparent heat of reaction for each injection was obtained by integration of the peak area. The heats developed on protein or peptide dilutions were determined in separate runs loading the sample cell or the injection syringe with buffer, respectively, in the conditions used for the binding experiments. […] Protein (Orb2A, 185 μM) and ligand (QBP1 and SCR, 300 μM and 51 μM, respectively) concentrations in the loading solutions were measured spectrophotometrically using their respective extinction coefficients. • Drosophila strains.

-synuclein = -synuclein (Homo sapiens, UniProt P37840); conditions: cited from earlier work
Sup35 = target: T1, Sup35 (Saccharomyces cerevisiae, UniProt P05453); conditions: cited from earlier work
T1 sequence (P05453 1-253 limits assumed): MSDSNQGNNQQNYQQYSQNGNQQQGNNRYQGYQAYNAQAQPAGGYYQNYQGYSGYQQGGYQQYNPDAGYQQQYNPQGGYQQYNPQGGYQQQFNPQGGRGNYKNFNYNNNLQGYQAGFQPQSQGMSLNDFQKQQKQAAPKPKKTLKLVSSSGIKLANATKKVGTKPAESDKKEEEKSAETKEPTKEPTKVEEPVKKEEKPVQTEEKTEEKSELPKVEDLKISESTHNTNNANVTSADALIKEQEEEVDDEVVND

Tau = Tau (Homo sapiens, UniProt P10636); conditions: personal communication; cited from earlier work
Chain of Tau (P10636 whole entry): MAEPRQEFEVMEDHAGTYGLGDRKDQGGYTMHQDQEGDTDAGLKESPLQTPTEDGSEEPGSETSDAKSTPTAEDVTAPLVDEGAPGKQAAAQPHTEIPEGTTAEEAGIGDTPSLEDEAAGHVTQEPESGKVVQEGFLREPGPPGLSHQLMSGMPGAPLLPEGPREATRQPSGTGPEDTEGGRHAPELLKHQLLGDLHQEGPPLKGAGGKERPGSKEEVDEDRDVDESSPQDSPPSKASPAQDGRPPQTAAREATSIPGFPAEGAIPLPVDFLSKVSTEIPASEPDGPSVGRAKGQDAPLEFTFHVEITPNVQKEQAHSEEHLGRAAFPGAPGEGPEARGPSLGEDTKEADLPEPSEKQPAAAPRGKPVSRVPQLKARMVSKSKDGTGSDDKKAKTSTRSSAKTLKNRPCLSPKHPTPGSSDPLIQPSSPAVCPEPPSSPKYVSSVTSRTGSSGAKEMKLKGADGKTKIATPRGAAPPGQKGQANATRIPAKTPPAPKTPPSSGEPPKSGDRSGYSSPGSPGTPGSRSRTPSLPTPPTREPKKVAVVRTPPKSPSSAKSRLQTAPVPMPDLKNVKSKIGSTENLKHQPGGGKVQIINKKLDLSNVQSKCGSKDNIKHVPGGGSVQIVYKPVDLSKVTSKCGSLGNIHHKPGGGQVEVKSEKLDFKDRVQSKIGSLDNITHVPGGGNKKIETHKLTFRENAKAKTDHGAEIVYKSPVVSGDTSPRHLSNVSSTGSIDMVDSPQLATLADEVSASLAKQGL

polyQ tracks = conditions: administered orally; cited from earlier work
[6] = system: monomeric expanded polyQ proteins; conditions: cited from earlier work

Row | Compound | short-term memory (courtship suppression immediately after training) (Drosophila melanogaster) | long-term memory (courtship suppression after 24 hours) (Drosophila melanogaster) | effect on fly development (Drosophila melanogaster) | normal courtship behaviour (Drosophila melanogaster) | Orb2A PLD amyloidogenesis monitored by CR binding (Orb2A PLD [1]) | Orb2A PLD amyloidogenesis monitored by turbidimetry (Orb2A PLD [2]) | oligomerization and loss of far-UV CD signal due to aggregation and precipitation (Orb2A PLD [3]) | formation of oligomers and fibers by TEM (Orb2A PLD [4]) | putative M events (SMFS incomplete recordings) (Orb2A PLD [5]) | structures formed per molecule (SMFS force peaks) (Orb2A PLD [5]) | formation of M conformers (SMFS) (Orb2A PLD [5]; overnight 4° C., reduced from 37.7%) [%] | interaction with Orb2A by ITC (full-length Orb2A) | effect on NM/M conformational transition (SMFS) (Orb2A PLD [5]; overnight 4° C.) | amyloidogenesis (conformational polymorphism, oligomerization, fibrillogenesis) (-synuclein) | amyloidogenesis (conformational polymorphism, oligomerization, fibrillogenesis) (Sup35) | amyloidogenesis (Tau) | amyloidogenesis of polyQ tracks in Drosophila (polyQ tracks) | β-conformational transition, oligomerization, fibrillogenesis, cytotoxicity and neurodegeneration of expanded polyQ proteins [6]
1 | CC[C@H](C)[C@H](NC(=O)CNC(=O)[C@@H]1CCCN1C(=O)[C@H](Cc1c[nH]c2ccccc12)NC(=O)[C@H](Cc1c[nH]c2ccccc12)NC(=O)[C@H](CCCCN)NC(=O)[C@H](Cc1c[nH]c2ccccc12)NC(C)=O)C(=O)N[C@@H](Cc1ccccc1)C(N)=O [QBP1-f, Ac-WKWWPGIF-NH2] (Ac-WKWWPGIF-NH2) | does not interfere with short-term memory | loss of long-term memory | did not affect fly development | slightly diminished | inhibited Orb2A PLD amyloidogenesis | inhibited Orb2A PLD amyloidogenesis | suppressed the oligomerization processes and decreased the loss of signal due to aggregation and precipitation | dramatic reduction in the formation of both oligomers and fibers | fewer putative M events | fewer structures formed per molecule | 16.1 | physically interacts with Orb2A |  |  |  |  |  | 
2 | CC[C@H](C)[C@H](NC(=O)[C@@H]1CCCN1C(=O)[C@H](Cc1c[nH]c2ccccc12)NC(C)=O)C(=O)N[C@@H](Cc1c[nH]c2ccccc12)C(=O)N[C@@H](CCCCN)C(=O)NCC(=O)N[C@@H](Cc1c[nH]c2ccccc12)C(=O)N[C@@H](Cc1ccccc1)C(N)=O [SCR, Ac-WPIWKGWF-NH2] (Ac-WPIWKGWF-NH2) | does not interfere with short-term memory | no effect | did not affect fly development | slightly diminished |  |  | not | not |  |  |  | marginal interaction | no effect |  |  |  |  | 
3 | QBP1: polyglutamine binding peptide 1, hydrophobic peptide, known inhibitor of amyloids including HttQ expansions (SNWKWWPGIFD; QBP1) |  |  |  |  |  |  |  |  |  |  |  |  |  | inhibits amyloidogenesis | inhibits amyloidogenesis | not | can inhibit amyloidogenesis | suppressing oligomerization, fibrillogenesis as well as associated cytotoxicity and neurodegeneration
